Laboratory results from patent US20240067651A1 (Biohaven Therapeutics Ltd., priority 2019, published 2024).
Each block holds one compound with its values, some of them ahead of it.

Columns and labels:
[1] = Stability in Simulated Intestinal Fluid (SIF); type: in vitro ADME; set-up: key: % parent compound remaining relative to 0-minute sample
In short: (§1)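 LC-MS/MS read-out of intact compound (2 μg/mL final) over 60 minutes at 37° C; gastric medium pH 1.2 with pepsin, intestinal medium pH 6.8 with pancreatin. Half-life from ln(% remaining) against time.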

Plasma Stability = type: in vitro ADME, human
In short: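 Parent compound quantified by LC-MS/MS after acetonitrile precipitation, reported as percent of control remaining (triplicate). Incubation: 1 hour, 37° C, fresh human plasma, compound at 1 μM.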

[2] = Stability in Simulated Gastric Fluid (SGF); type: in vitro ADME; set-up: key: % parent compound remaining relative to 0-minute sample
In short: as §1

[3] = Caco-2 Permeability Assay; type: in vitro ADME, human; settings: human
In short: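 Bidirectional transport at 37 °C for 90 min, 10 μM donor concentration, with or without Pgp inhibitor, across 21-day Caco-2 monolayers with TEER >600 […] in HEPES-buffered HBSS, pH 7.4. LC-MS/MS of donor and receiver samples gives Papp, B→A/A→B efflux ratio and mass recovery.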

[4] = % remaining at 1 h, SIF with pancreatin pH 6.8, 2 μg/mL, 37° C.
[5] = % remaining at 1 h, human plasma, 1 μM, 37° C.
[6] = % remaining at 1 h, SGF with pepsin pH 1.2, 2 μg/mL, 37° C.
[7] = Caco-2, pH 7.4, donor 10 μM, 90 minutes, 37° C., direction not given
[8] = simulated intestinal fluid, remaining at 1 h
[9] = simulated gastric fluid, remaining at 1 h
[10] = Caco-2, pH 7.4, Caco-2 monolayer
[11] = % remaining at 1 h in simulated intestinal fluid
[12] = % remaining at 1 h in human plasma
[13] = % remaining at 1 h in simulated gastric fluid

SMILES: COC(=O)[C@H](CCCCNC(=O)[C@@H](N)C(C)C)NC(=O)OCn1ccc2c1c(=O)[nH]c(=S)n2CCOC(C)C.O=C(O)C(F)(F)F [Example 114, trifluoroacetic acid methyl (2S)-6-[(2S)-2-amino-3-methylbutanamido]-2-{[{{4-oxo-1-[2-(propan-2-yloxy)ethyl]-2-sulfanylidene-1H,2H,3H,4H,5H-pyrrolo[3,2-d]pyrimidin-5-yl}methoxy)carbonyl]amino}hexanoate]
- SIF [1, 4]: 89%
- human Plasma stability (Plasma Stability; [5]): 93%
- SGF [2, 6]: 98%
- Papp at 90 min, 10 µM [3, 7]: 0.102 ×10⁻⁶ cm/s

SMILES: CC(C)OCCn1c(SCOC(=O)CCCOC(=O)[C@@H](Cc2ccccc2)NC(=O)OC(C)(C)C)nc(=O)c2c1ccn2COC(=O)CCCOC(=O)[C@@H](Cc1ccccc1)NC(=O)OC(C)(C)C [Example 363, [(5-{[(4-{[(2R)-2-{[(tert-butoxy)carbonyl]amino}-3-phenylpropanoyl]oxy}butanoyl)oxy]methyl}-4-oxo-1-[2-(propan-2-yloxy)ethyl]-1H,4H,5H-pyrrolo[3,2-d]pyrimidin-2-yl)sulfanyl]methyl 4-{[(2R)-2-{[(tert-butoxy)carbonyl]amino}-3-phenylpropanoyl]oxy}butanoate]
- SIF [1, 8]: 18% remaining
- human Plasma stability (Plasma Stability; human plasma, remaining at 1 h): 42% remaining
- SGF [2, 9]: 97% remaining
- Papp at 90 min, 10 µM [3, 10]: 1.63 ×10⁻⁶ cm/s

SMILES: CC(C)OCCn1c(SCOC(=O)N(C)C)nc(=O)c2[nH]ccc21.O=C(O)C(F)(F)F [Example 164]
- SIF ([1]; % @ 1 h (remaining) in simulated intestinal fluid): 99% @ 1 h
- human Plasma stability (Plasma Stability; % @ 1 h (remaining) in human plasma): 98% @ 1 h
- SGF ([2]; % @ 1 h (remaining) in simulated gastric fluid): 100% @ 1 h
- Papp at 90 min, 10 µM [3, 10]: 4.2 ×10⁻⁶ cm/s

SMILES: CSCC[C@@H](NC(=O)OC(C)(C)C)C(=O)NCCOCCOC(=O)OCn1ccc2c1c(=O)[nH]c(=S)n2CCOC(C)C [Example 389, (2R)-2-{[(tert-butoxy)carbonyl]amino}-4-(methylsulfanyl)-N-[2-(2-{[{{4-oxo-1-[2-(propan-2-yloxy)ethyl]-2-sulfanylidene-1H,2H,3H,4H,5H-pyrrolo[3,2-d]pyrimidin-5-yl}methoxy)carbonyl]oxy}ethoxy)eth-yl]butanamide]
- SIF [1, 8]: 60% remaining
- human Plasma stability (Plasma Stability; human plasma, remaining at 1 h): 1% remaining
- SGF [2, 9]: 98% remaining
- Papp at 90 min, 10 µM [3, 10]: 5.94 ×10⁻⁶ cm/s

SMILES: CC(C)OCCn1c(=S)n(COC(=O)[C@@H](N)C(C)C)c(=O)c2c1ccn2COC(=O)[C@@H](N)C(C)C.O=C(O)C(F)(F)F.O=C(O)C(F)(F)F [Example 297, bis(trifluoroacetic acid) [3-({[(2S)-2-amino-3-methylbutanoyl]oxy}methyl)-4-oxo-1-[2-(propan-2-yloxy)ethyl]-2-sulfanylidene-1H,2H,3H,4H,5H-pyrrolo[3,2-d]pyrimidin-5-yl]methyl (2S)-2-amino-3-methylbutanoate]
- SIF ([1]; % remaining @ 1 h): 6% @ 1 h
- human Plasma stability (Plasma Stability; % remaining @ 1 h): 6% @ 1 h
- SGF ([2]; % remaining @ 1 h): 100% @ 1 h
- Papp at 90 min, 10 µM ([3]; Caco-2, pH 7.4): 0.462 ×10⁻⁶ cm/s

- SIF ([1]; simulated intestinal fluid, after 1 h): 2% remaining
- human Plasma stability (Plasma Stability; human plasma, after 1 h): 41% remaining
- SGF ([2]; simulated gastric fluid, after 1 h): 92% remaining
- Papp at 90 min, 10 µM [3, 10]: < 0.214 ×10⁻⁶ cm/s
SMILES: CC(C)OCCn1c(=S)[nH]c(=O)c2c1ccn2COC(=O)CCCCCCCCCCC(=O)OC(C)C [Example 262]

- SIF [1, 4]: 64%
- human Plasma stability (Plasma Stability; [5]): 100%
- SGF [2, 6]: 99%
- Papp at 90 min, 10 µM [3, 7]: 0.751 ×10⁻⁶ cm/s
SMILES: COCCOCCN(C)C(=O)OCSc1nc(=O)c2[nH]ccc2n1CCOC(C)C [Example 88, ({4-Oxo-1-[2-(propan-2-yloxy)ethyl]-1H,4H,5H-pyrrolo[3,2-d]pyrimidin-2-yl}sulfanyl)methyl N-[2-(2-methoxyethoxy)ethyl]-N-methylcarbamate]

- SIF [1, 11]: 75% remaining
- human Plasma stability (Plasma Stability; [12]): 1% remaining
- SGF [2, 13]: 99% remaining
- Papp at 90 min, 10 µM [3, 10]: 6.58 ×10⁻⁶ cm/s
SMILES: CC(C)OCCn1c(SCOC(=O)C2CCN(C(=O)OC(C)(C)C)CC2)nc(=O)c2c1ccn2COC(=O)CCC(=O)OC(C)(C)C [Example 131]

- SIF [1, 11]: 90% remaining
- human Plasma stability (Plasma Stability; [12]): 93% remaining
- SGF [2, 13]: 85% remaining
- Papp at 90 min, 10 µM [3, 10]: 10.7 ×10⁻⁶ cm/s
SMILES: CC[C@H](C)[C@H](NC(=O)OC(C)(C)C)C(=O)NCCC(=O)OCn1ccc2c1c(=O)[nH]c(=S)n2CCOC(C)C [Example 34]
